Literature values, collected in article PMC7098970, “Neurosteroids as Selective Inhibitors of Glycine Receptor Activity: Structure-Activity Relationship Study on Endogenous Androstanes and Androstenes” (Frontiers in Molecular Neuroscience, 2020).
Where a name gives a salt, the structure may show the parent alone.

Experiments:
GABAAR = system: GABAAR; parameters: method as in Park-Chung et al., 1999; settings: ref Park-Chung et al., 1999; cited from earlier work
recombinant GlyRs = system: recombinant GlyRs; parameters: method as in Maksay et al. (2001); settings: expressed in frog oocytes; ref Maksay et al. (2001); read-out: IC50 for inhibition of recombinant GlyRs; cited from earlier work

| Compound | Efficacy of potentiation of IGABA (GABAAR) [%] | IC50 (recombinant GlyRs) [µM] |
| --- | --- | --- |
| CC(=O)[C@H]1CC[C@H]2[C@@H]3CC[C@H]4C[C@H](O)CC[C@]4(C)[C@H]3CC[C@]12C [3α-hydroxy-5α-pregnane-20-one] | 1373 | – |
| CC(O)C1CCC2C3CCC4CC(O)CCC4(C)C3CCC12C (stereo not drawn) [20α-hydroxy analog] | 166 | – |
| C[C@]12CC[C@H](OS(=O)(=O)O)CC1=CCC1C2CC[C@]2(C)C(=O)CCC12 (stereo partly drawn) [DHEA sulfate] | – | 2.5 to 6.3 |
